This passage reports TGI results from PubChem BioAssay (NCI).

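Exposure lasted 48 hours, with cells grown in 96-well plates and compounds tested at five concentrations. The concentration for full growth arrest is given as TGI.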

Among the test systems are NCI-H23 lung; RPMI-8226 leukemia; NCI/ADR-RES ovarian; OVCAR-4 ovarian; MDA-MB-435; MDA-N; HCC-2998 colon; SK-MEL-28 melanoma; HT29 colon; K-562 leukemia.
Common to all, as to assay: growth of human tumour cells (NCI), 48 h

`CC1(C2(C)OC(=O)c3ccccc32)OC(=O)c2ccccc21` (stereo not given): the TGI with NCI-H23 lung, in the assay with RPMI-8226 leukemia, in the assay with NCI/ADR-RES ovarian, with OVCAR-4 ovarian, with MDA-MB-435 and with MDA-N was above 100 µM throughout. The TGI with HCC-2998 colon, in the assay with SK-MEL-28 melanoma and in the assay on HT29 colon was above 100 µM each time.

In the case of `Cc1ccc(S(=O)(=O)NN=C2CCCCCCCCCCC2)cc1`, the TGI with NCI-H23 lung, in the assay with RPMI-8226 leukemia, in the assay with NCI/ADR-RES ovarian, with OVCAR-4 ovarian, in the assay on K-562 leukemia and in the assay with MDA-MB-435 was above 100 µM in each case. Moreover, the TGI in the assay with MDA-N, in the assay with HCC-2998 colon, in the assay with SK-MEL-28 melanoma and in the assay on HT29 colon was above 100 µM throughout.

In the case of `CCCCC(=O)Nc1ccc2cc(C(=O)OC)c(ON3C(=O)c4ccccc4C3=O)nc2n1`, the TGI in the assay on NCI-H23 lung is above 100 µM; in the assay on RPMI-8226 leukemia, above 100 µM; in the assay with NCI/ADR-RES ovarian it was above 100 µM; in the assay with OVCAR-4 ovarian, 81.2 µM; in the assay with K-562 leukemia, above 100 µM; with MDA-MB-435, above 100 µM. Further, the results for the TGI with MDA-N, in the assay on HCC-2998 colon and in the assay with SK-MEL-28 melanoma were 80.7 µM, above 100 µM and 53.5 µM, respectively.

For the compound `CC(C)(C)c1ccc(-c2nc3ccc([N+](=O)[O-])cc3c(=O)o2)cc1`, the TGI in the assay on NCI-H23 lung is 78.7 µM; in the assay on RPMI-8226 leukemia it was above 100 µM; with NCI/ADR-RES ovarian, 79.8 µM; in the assay with OVCAR-4 ovarian, 75.2 µM; in the assay with K-562 leukemia it was 71.3 µM; with MDA-MB-435, 77 µM. For the same compound, the TGI in the assay on MDA-N was above 100 µM; with HCC-2998 colon, 33 µM; in the assay on SK-MEL-28 melanoma, 97.1 µM; in the assay on HT29 colon it was 69.4 µM.

In the case of `COc1ccc(C2SCC(=O)N2c2ccc(-n3c(-c4ccccc4)nc4ccccc4c3=O)cc2)cc1OC` (stereo not given), the TGI in the assay on NCI-H23 lung, in the assay with RPMI-8226 leukemia, with NCI/ADR-RES ovarian, in the assay with K-562 leukemia, with MDA-MB-435 and in the assay on MDA-N was above 100 µM each time. The TGI in the assay with HCC-2998 colon, with SK-MEL-28 melanoma and in the assay on HT29 colon was above 100 µM each time.

Turning to `CN(NC(=O)CCCl)C1=NCCN1`, the TGI in the assay on NCI-H23 lung, with RPMI-8226 leukemia, in the assay on NCI/ADR-RES ovarian, in the assay on OVCAR-4 ovarian, in the assay on K-562 leukemia and in the assay with MDA-MB-435 was above 100 µM throughout. Moreover, the TGI in the assay with MDA-N, in the assay on HCC-2998 colon, with SK-MEL-28 melanoma and in the assay with HT29 colon was above 100 µM each time.

On to `CC(C)NC(=O)CN1CCN(C2=CC(=O)c3c(O)ccc(O)c3C2=O)CC1`, for which the TGI was 24.3 µM in the assay with NCI-H23 lung; above 100 µM in the assay with RPMI-8226 leukemia; 25.5 µM with NCI/ADR-RES ovarian; 20.3 µM with OVCAR-4 ovarian; above 100 µM in the assay on K-562 leukemia; 3.76 µM in the assay on MDA-MB-435. For the same compound, the TGI stood at 16.3 µM with MDA-N, 30.4 µM in the assay with HCC-2998 colon, 31.6 µM with SK-MEL-28 melanoma and 12.3 µM with HT29 colon.

With `N#CCCN(CCC#N)c1ccc(C(N=Nc2ccccc2)=Nc2ccccc2)cc1`, the TGI with NCI-H23 lung, in the assay with RPMI-8226 leukemia, with NCI/ADR-RES ovarian, in the assay with OVCAR-4 ovarian, in the assay with K-562 leukemia and in the assay with MDA-MB-435 was above 100 µM throughout. The TGI in the assay on MDA-N, with HCC-2998 colon, in the assay on SK-MEL-28 melanoma and with HT29 colon was above 100 µM each time.

Regarding `CC1=C2C(=O)[C@H]3[C@@H](CC=C4C[C@@H](O)CC[C@@]43C)[C@@H]2CC[C@]12O[C@@H]1C[C@H](C)CN[C@H]1[C@H]2C`, the TGI with NCI-H23 lung was above 58 µM; in the assay with RPMI-8226 leukemia, above 100 µM; in the assay with NCI/ADR-RES ovarian it was above 100 µM; with OVCAR-4 ovarian it was above 64.5 µM; in the assay with K-562 leukemia it was above 100 µM; in the assay on MDA-MB-435 it was above 100 µM. Further, the TGI with MDA-N was above 100 µM; in the assay on HCC-2998 colon, above 82.8 µM; with SK-MEL-28 melanoma, above 92.1 µM; in the assay with HT29 colon, above 100 µM.

On to `C[C@]12CC[C@@H]3c4cc(OCC(F)(F)F)c(O)cc4C(=O)C[C@H]3[C@@H]1CC[C@@H]2O`, for which the TGI was above 100 µM with NCI-H23 lung; above 100 µM in the assay with RPMI-8226 leukemia; above 31.3 µM in the assay on NCI/ADR-RES ovarian; above 100 µM in the assay on OVCAR-4 ovarian; above 100 µM in the assay on K-562 leukemia; above 25.4 µM with MDA-MB-435. The TGI in the assay with MDA-N was 5.69 µM; in the assay with HCC-2998 colon, 38.7 µM; in the assay on SK-MEL-28 melanoma it was above 52.3 µM; with HT29 colon, 38.4 µM.

Take `Clc1ccc(Oc2ccc(N=Cc3ccc(Cl)cc3Cl)cc2Cl)cc1`: the TGI is above 100 µM with NCI-H23 lung; above 100 µM in the assay on RPMI-8226 leukemia; 84.9 µM in the assay on NCI/ADR-RES ovarian; above 100 µM in the assay on OVCAR-4 ovarian; 49.7 µM in the assay on MDA-MB-435; 33.7 µM in the assay with MDA-N. The TGI in the assay on HCC-2998 colon, with SK-MEL-28 melanoma and in the assay with HT29 colon was above 100 µM each time.

Turning to `COc1ccc(N=C(C)c2ccncc2)cc1`, the TGI with NCI-H23 lung, in the assay with RPMI-8226 leukemia, in the assay with NCI/ADR-RES ovarian, in the assay with OVCAR-4 ovarian, with K-562 leukemia and with MDA-MB-435 was above 100 µM throughout. The TGI in the assay on MDA-N, with HCC-2998 colon, in the assay with SK-MEL-28 melanoma and in the assay on HT29 colon was above 100 µM each time.

For the compound `CCCc1cc(=O)oc2c3c(c4c(c12)OC(C)(C)C=C4)O[C@@H](C)[C@H](C)C3=O`, the TGI with NCI-H23 lung came to 38.4 µM; in the assay on RPMI-8226 leukemia, 31.2 µM; with NCI/ADR-RES ovarian it was 35.4 µM; in the assay on K-562 leukemia, 27.7 µM; in the assay on MDA-MB-435, 58.8 µM; in the assay with MDA-N, 36.4 µM. Also, the TGI in the assay with HCC-2998 colon amounted to 34.5 µM; in the assay on SK-MEL-28 melanoma, 25.7 µM; in the assay with HT29 colon, 23.2 µM.
